Experimental data taken from patent publication US8765775B2, “Anti-angiogenic compounds” (Universitaet Zuerich, priority 2008, dated 2014).
Where “and” joins values, the source holds several entries; their conditions need not be identical. Identical values can stand only once.

Key:
EphB4 [1] = target: T1, EphB4 (Homo sapiens, UniProt P54760); experiment: Cerep FRET-based enzymatic assay; assay type: biochemical; details: ATP 0.75 μM, read-out: Enzymatic assays IC50 Cerep
T1 sequence (P54760 16-987): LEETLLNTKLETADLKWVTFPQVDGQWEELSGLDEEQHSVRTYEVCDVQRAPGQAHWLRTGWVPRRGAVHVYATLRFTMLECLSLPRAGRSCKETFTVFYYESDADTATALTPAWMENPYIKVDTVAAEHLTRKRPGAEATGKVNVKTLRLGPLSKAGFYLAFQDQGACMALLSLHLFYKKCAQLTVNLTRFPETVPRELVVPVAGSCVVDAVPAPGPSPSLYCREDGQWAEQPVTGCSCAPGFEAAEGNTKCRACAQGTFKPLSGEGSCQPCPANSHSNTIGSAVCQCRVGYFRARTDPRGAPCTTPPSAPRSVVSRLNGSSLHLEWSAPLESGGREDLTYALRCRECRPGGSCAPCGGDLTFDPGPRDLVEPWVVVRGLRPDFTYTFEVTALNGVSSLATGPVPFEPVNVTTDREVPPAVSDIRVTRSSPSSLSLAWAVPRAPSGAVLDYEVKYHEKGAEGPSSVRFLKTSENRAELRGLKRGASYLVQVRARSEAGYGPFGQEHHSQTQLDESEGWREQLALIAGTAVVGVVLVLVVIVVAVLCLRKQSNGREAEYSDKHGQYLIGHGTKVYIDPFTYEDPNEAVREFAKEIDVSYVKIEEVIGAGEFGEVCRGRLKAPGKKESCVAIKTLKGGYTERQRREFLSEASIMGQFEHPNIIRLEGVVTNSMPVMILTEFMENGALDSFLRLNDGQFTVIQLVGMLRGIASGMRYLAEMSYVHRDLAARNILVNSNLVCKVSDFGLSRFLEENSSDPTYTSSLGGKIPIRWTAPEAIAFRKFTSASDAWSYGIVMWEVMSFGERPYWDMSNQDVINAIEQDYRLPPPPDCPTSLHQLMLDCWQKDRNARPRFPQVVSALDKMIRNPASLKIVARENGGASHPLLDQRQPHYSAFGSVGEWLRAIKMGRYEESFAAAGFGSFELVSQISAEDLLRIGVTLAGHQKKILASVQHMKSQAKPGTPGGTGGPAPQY
Source text: Similar values of IC50 compared to the original FRET-based enzymatic assay (Z'Lyte) are obtained (Table 2).

EphB4 [2] = target: T1, EphB4; experiment: Panvera Z'Lyte FRET-based enzymatic assay
Method: In vitro kinase activity was measured using the Panvera Z'Lyte Tyr2 kinase assay PV3191 (Invitrogen, USA), according to the manufacturer's instructions. […] The reaction is performed at room temperature for 1 hour.

EphB4 [3] = target: T1, EphB4; experiment: Omnia kinetic assay (Omnia Tyr Recombinant Kit KNZ4051); assay type: biochemical; parameters: purchased Proqinase, Germany
Method: The data obtained in these experiments are shown in a specific velocity plot (FIG. 2), where the ratio of the initial velocities for the non-inhibited and inhibited reactions at a given ATP concentration (v0/vi in FIG. 2) is plotted versus σ/(1+σ), with σ=[ATP]/Km. […] Kinetic assay. […] Fluorescence progress curves are measured upon excitation at 360 nm and emission at 485 nm. […] Biosource Omnia. […] The assay is run at 30° C. for 1 hour.

EphB4 [4] = target: T1, EphB4; experiment: IC50 and % inhibition (Table 3); assay type: biochemical; details: for IC50: repeated determinations
[5] = target: T2, myc-tagged full-length human EphB4 (Homo sapiens, UniProt P54760); experiment: Phospho-EphB4 ELISA of CHO cells (EphB4 autophosphorylation); assay type: cell-based
T2 construct: stably transfected with myc-tagged full-length human EphB4; expressed in transfected cells; host or cells: CHO-FRT cells (Flip-In System, Invitrogen)
T2 sequence (P54760 16-987): T1 sequence (P54760 16-987)
Method: Phospho-EphB4 ELISA of CHO cells. The ELISA assay was performed as follows: Chinese hamster ovary (CHO)-FRT cells are stably transfected with myc-tagged full-length human EphB4 according to the Flip-In System protocol (Invitrogen, USA). […] Cells of this clone are preincubated with EphB4 inhibitors for 15 minutes and then stimulated with preclustered ephrinB2-Fc for 45 minutes at 37° C. Cells are lysed, transferred to a 96-well plate coated with anti-myc antibody and incubated overnight at 4° C. After incubation with anti-phosphotyrosine antibody, reactions are developed with BM Blue peroxydase substrate, and autophosphorylation of EphB4 is quantified by measuring absorption at 450 nm.

## Cn1c(=O)[nH]c(=O)c2c1nc1n(CCCCO)c(-c3ccccc3)cn21 [Compound 2]
EphB4 [1]
  IC50: 6.8 µM
EphB4 [2]
  IC50: ~1.6 µM
EphB4 [2]; Enzymatic assays IC50 Z′Lyte, FRET-based, 10 μM ATP, 1% DMSO, room temperature 1 hour
  IC50: 1.4 µM and 1.8 µM
EphB4 [3]; 0.01% Triton X-100
  Sensitivity of inhibition to detergent (in words): detergent-insensitive inhibition
EphB4 [3]; ATP 31.25 to 500 μM, Km 158 μM
  Mode of inhibition versus ATP (specific velocity plot): ATP competitive
EphB4 [3]; two experiments, with and without 0.01% Triton X-100, read-out: Ki corresponding to Omnia IC50
  Ki: 2.7 µM and 2.9 µM
EphB4 [3]; two experiments, without and with 0.01% Triton X-100, ATP 125 μM, 30° C. 1 hour, read-out: Enzymatic assays IC50 Omnia
  IC50: 5.6 µM and 7.9 µM
EphB4 [4]; C = 10 μM, 10 µM
  % inhibition at indicated concentration C: 67% and 68% and 59% and 64%
EphB4 [4]; C = 10 μM, read-out: % inhibition at indicated concentration C
  inhibition at 10 µM: 72%
EphB4 [4]; IC50, Table 3
  IC50: 6.7 µM
EphB4 [4]; Table 3, read-out: IC50
  IC50: 8 µM and 7 µM
[5]; 20 μM
  Inhibitory effects on EphB4 autophosphorylation in CHO cells (in words): only mild inhibitory effects
[5]; in CHO cells, at 20 μM
  Cell-based assay percent inhibition: neg.
